Series [1] in a line: Solubility of the dye in n-decane (saturated solution, 25° C., ordinary pressure). It is filed as physicochemical. The settings on record: for Solubility compared with the comparative compound: from Table 1; for [Molar extinction coefficient at absorption maximum wavelength] × [molar concentration of saturated solution]: saturated solution at 25° C.; for Solubility (decane): saturated solution, 25° C., ordinary pressure, 0.1-μm filter. The method, then: (§1) The dye was added to n-decane, and this mixture was subjected to an ultrasonic treatment at 30° C. and ordinary pressure. When the dye completely dissolved, an additional amount of the dye was added so that the dye partly remained undissolved. The mixture thus treated was allowed to stand at room temperature (25° C.) for 12 hours and then subjected to centrifugal filtration with a 0.1-μm filter to obtain a saturated solution of the dye. This solution was diluted to an appropriate concentration and examined for absorption spectrum.
(§2) From values of absorption maximum wavelength in the wavelength range of 350-800 nm, gram extinction coefficient, and molar extinction coefficient which had been determined beforehand at an appropriate concentration and from the dilution ratio and the absorption spectrum of the diluted solution, the solubility (% by weight) and the product of the molar extinction coefficient at the absorption maximum wavelength and the molar concentration of the saturated solution were calculated.

A short description of series [2]: Absorption spectrum and colour of the n-decane solution of the dye. It counts as physicochemical. The following applies: for Gram extinction coefficient: decane, at the absorption maximum wavelength; for Color of solution / Absorption maximum wavelength: n-decane solution; for Absorption maximum wavelength: wavelength range 350-800 nm. The protocol: as §1, §2

The record followed here is US8143382B2, “Pyrazole disazo dye and ink containing the dye” (Mitsubishi Chemical Corporation, priority 2007, dated 2012).

As to `CCCCc1nn(C(C)(C)C)c(O)c1N=Nc1ccc(N=Nc2ccccc2)cc1` [1-1], in series [1], the “Solubility compared with the comparative compound” value was “higher solubility than the comparative compound”, the “[Molar extinction coefficient at absorption maximum wavelength] × [molar concentration of saturated solution]” value was 1900 cm⁻¹ and the “Solubility (decane)” value was 4.2 wt %. For the same compound, in series [2], the Gram extinction coefficient is reported as 62000 cm^2g^−1, the Color of solution result was “yellow” and the Absorption maximum wavelength stood at 417 nm.

For the compound `CCCCc1ccc(N=Nc2ccc(N=Nc3c(CCCC)nn(C(C)(C)C)c3O)cc2)cc1` [1-2], in series [1], the “Solubility compared with the comparative compound” value is reported as “higher solubility than the comparative compound”, the “[Molar extinction coefficient at absorption maximum wavelength] × [molar concentration of saturated solution]” value was 13000 cm⁻¹ and the “Solubility (decane)” value is reported as 30 wt %. Also, in series [2], the Gram extinction coefficient came to 61000 cm^2g^−1, the Color of solution entry is reported as “yellow” and the Absorption maximum wavelength is 421 nm.

Regarding `CCc1nn(C(C)(C)C)c(O)c1N=Nc1ccc(N=Nc2ccccc2)cc1` [1-3], in series [1], the “Solubility compared with the comparative compound” value is listed as “higher solubility than the comparative compound”, the “[Molar extinction coefficient at absorption maximum wavelength] × [molar concentration of saturated solution]” value came to 1400 cm⁻¹ and the “Solubility (decane)” value worked out at 3.1 wt %. Further, in series [2], the Gram extinction coefficient is reported as 69000 cm^2g^−1, the Color of solution result is on record as “yellow” and the Absorption maximum wavelength was 415 nm.

Regarding `Cc1nn(-c2ccccc2)c(O)c1N=Nc1ccc(N=Nc2ccccc2)cc1` [compound 1, reference compound], in series [1], the “[Molar extinction coefficient at absorption maximum wavelength] × [molar concentration of saturated solution]” value was found to be 10 cm⁻¹ and the “Solubility (decane)” value is recorded as 0.014 wt %. Further, in series [2], the Gram extinction coefficient is given as 97000 cm^2g^−1, the Color of solution entry is on record as “almost no” and the Absorption maximum wavelength was 416 nm.
